These results are taken from patent US6936600B2, “Sorbitol dehrydrogenase inhibitors” (Pfizer Inc, priority 1999, dated 2005).

The term melting point denotes the temperature, or range, at which the solid turns liquid. Take `C[C@@H](O)c1nccc(N2C[C@H]3CCC[C@@H](C2)N3c2ccnc([C@@H](C)O)n2)n1` (stereo in doubt): the melting point was 151 to 158 °C.

The compound `C[C@@H](O)c1nccc(N2CCc3cc(-c4ccsc4)ccc3C2)n1` (stereo in doubt) [Example 248, 1-[4-(6-Thiophen-3-yl-3,4-dihydro-1H-isoquinolin-2-yl)-pyrimidin-2-yl]-ethanol] yielded a melting point of 125.5 to 127.5 °C.

In turn, `C[C@@H](O)c1nccc(N2CCC(C3CCN(c4ccnc([C@@H](C)O)n4)CC3)CC2)n1` [Example 3, 1R-(4-{1′-[2-(1R-Hydroxy-ethyl)-pyrimidin-4-yl]-[4,4′]bipiperidinyl-1-yl}-pyrimidin-2-yl)-ethanol] came in with a melting point of 144 to 153 °C. `C[C@@H]1CN(c2ccnc([C@@H](C)O)n2)[C@@H](C)CN1c1ccnc([C@@H](C)O)n1` [Example 4, 1R-(4-{4-[2-(1R-Hydroxy-ethyl)-pyrimidin-4-yl]-2R,S-dimethyl-piperazin-1-yl}-pyrimidin-2-yl)-ethanol] showed a melting point of 153 to 155 °C. Regarding `C[C@@H](O)c1nccc(N2CCN(c3nc4ncccc4o3)[C@@H](C)C2)n1` [Example 20, 1R-[4-(3S-Methyl-4-oxazolo[4,5-b]pyridin-2-yl-piperazin-1-yl)-pyrimidin-2-yl]-ethanol], the melting point was in the range of 158 to 161 °C.

With `Cc1cc(C)nc(N2C[C@@H](C)N(c3ccnc([C@@H](C)O)n3)[C@@H](C)C2)n1` [Example 27, 1R-{4-[4-(4,6-Dimethyl-pyrimidin-2-yl)-2R,6S-dimethyl-piperazin-1-yl]-pyrimidin-2-yl}-ethanol], the melting point lay in the range of 150.5 to 152 °C.

In the case of `C[C@@H]1CN(c2nc3ncccc3o2)C[C@H](C)N1c1ccnc([C@@H](C)O)n1` [Example 31, 1R-[4-(2R,6S-Dimethyl-4-oxazolo-[4,5-b]pyridin-2-yl-piperazin-1-yl)-pyrimidin-2-yl]-ethanol], the melting point is 231 to 233 °C. In turn, `C[C@@H]1CN(c2nc3cccnc3o2)C[C@H](C)N1c1ccnc([C@@H](C)O)n1` [Example 33, 1R-[4-(2R,6S-Dimethyl-4-oxazolo[5,4-b]pyridin-2-yl-piperazin-1-yl)-pyrimidin-2-yl]-ethanol] came in with a melting point of 204 to 207 °C. With `C[C@@H]1CN(c2ccnc(C(C)(C)O)n2)C[C@H](C)N1c1ccnc([C@@H](C)O)n1` [Example 34, 2-(4-{4-[2-(1R-Hydroxy-ethyl)-pyrimidin-4-yl]-3R,5S-dimethyl-piperazin-1-yl}-pyrimidin-2-yl)-propan-2-ol], the melting point was 138 to 140 °C. For the compound `C[C@@H](O)c1nccc(N2CCN(c3ccnc(CO)n3)[C@@H](C)C2)n1` [Example 37, 1R-{4-[4-(2-Hydroxymethyl-pyrimidin-4-yl)-3S-methyl-piperazin-1-yl]-pyrimidin-2-yl}-ethanol], the melting point was in the range of 178 to 181 °C.

The compound `C[C@@H](O)c1nccc(N2CCN(c3ccnc([C@@H](C)O)n3)[C@@H](C)C2)n1` [Example 38, 1R-(4-{4-[2-(1R-Hydroxy-ethyl)-pyrimidin-4-yl]-2S-methyl-piperazin-1-yl}-pyrimidin-2-yl)-ethanol] displayed a melting point of 158 to 160 °C. Compound `C[C@@H]1CN(c2ccnc([C@@H](C)O)n2)CCN1c1ccnc([C@@H](C)O)n1` [Example 39, 1R-(4-{4-[2-(1R-Hydroxy-ethyl)-pyrimidin-4-yl]-2R-methyl-piperazin-1-yl}-pyrimidin-2-yl)-ethanol] yielded a melting point of 155 to 157 °C. To `CC(=O)c1nccc(N2[C@H](C)CN(c3ccnc([C@@H](C)O)n3)C[C@@H]2C)n1` [Example 45, 1-(4-{4-[2-(1R-Hydroxy-ethyl)-pyrimidin-4-yl]-2R,6S-dimethyl-piperazin-1-yl}-pyrimidin-2-yl)-ethanone] belongs 123 to 127 °C; to `CC(=O)c1nccc(N2C[C@@H](C)N(c3ccnc([C@@H](C)O)n3)[C@@H](C)C2)n1` [Example 46, 1-(4-{4-[2-(1R-Hydroxy-ethyl)-pyrimidin-4-yl]-3R,5S-dimethyl-piperazin-1-yl}-pyrimidin-2-yl)-ethanone], 150 to 164 °C; to `CC(=O)c1nccc(N2C[C@@H](C)N(c3ccnc(C(C)=O)n3)[C@@H](C)C2)n1` [Example 63, 1-{4-[4-(2-Acetyl-pyrimidin-4-yl)-2R*,6S*-dimethyl-piperazin-1-yl]-pyrimidin-2-yl}-ethanone], > 235 °C (dec.).

As to `Cc1cc(C)nc(N2[C@H](C)CN(c3ccnc([C@@H](C)O)n3)C[C@@H]2C)n1` [Example 66, 1R-{4-[4-(4,6-Dimethyl-pyrimidin-2-yl)-3R,5S-dimethyl-piperazin-1-yl]-pyrimidin-2-yl}-ethanol], the melting point was 141.5 to 142.5 °C. To `C[C@@H](O)c1nccc(N2CCc3c(c(=O)n(-c4cnc5ccccc5n4)n3C)C2)n1` [Example 75, (R)-5-[2-(1-Hydroxy-ethyl)-pyrimidin-4-yl]-1-methyl-2-quinoxalin-2-yl-1,2,4,5,6,7-hexahydro-pyrazolo[4,3-c]pyridin-3-one] belongs 217 to 219 °C (dec.). The compound `Cc1nc2c(c(-c3ccccc3)n1)CCN(c1ccnc([C@@H](C)O)n1)C2` [Example 86, (R)-1-[4-(2-Methyl-4-phenyl-5,8-dihydro-6H-pyrido[3,4-d]pyrimidin-7-yl)-pyrimidin-2-yl]ethanol] displayed a melting point of 114 to 116 °C. In the case of `C[C@@H](O)c1nccc(N2CCc3cnc(-c4ccccc4)nc3C2)n1` [Example 87], the melting point lay within 72 to 74 °C. With `C[C@@H](O)c1nccc(N2CCc3c(nc(N)nc3-c3ccccc3)C2)n1` [Example 90] the figure was 225 to 228 °C (dec.). With `C[C@@H](O)c1nccc(N2CCc3c(nc(-c4ccccc4)nc3-c3ccccc3)C2)n1` [Example 91] the figure was 73 to 75 °C; with `Cc1nc2c(c(Oc3ccccc3)n1)CCN(c1ccnc([C@@H](C)O)n1)C2` [Example 97], 156 to 158 °C. With `Cc1nc2c(c(Sc3ccccc3)n1)CCN(c1ccnc([C@@H](C)O)n1)C2` [Example 98] the figure was 103 to 105 °C; with `Cc1nc2c(c(N3CCc4ccccc43)n1)CCN(c1ccnc([C@@H](C)O)n1)C2` [Example 99], 128 to 131 °C; with `C[C@@H](O)c1nccc(N2CCN(S(=O)(=O)/C=C/c3ccccc3)CC2)n1` [Example 111, (E)-1-R{4-[4-(2-phenyl-ethenesulfonyl)-piperazin-1-yl]-pyrimidin-2-yl}-ethanol], 68 to 70 °C. In the case of `C[C@@H](O)c1nccc(N2C[C@@H]3C[C@H]2CN3S(=O)(=O)c2ccc(Cl)cc2)n1` [Example 115], the melting point is 83 to 88 °C. `C[C@@H](O)c1nccc(N2C[C@@H]3C[C@H]2CN3S(=O)(=O)c2cccs2)n1` [Example 116] came in with a melting point of 84 to 86 °C.

On to `C[C@@H](O)c1nccc(N2C[C@@H]3C[C@H]2CN3S(=O)(=O)N(C)C)n1` [Example 120], for which the melting point was 110 to 111 °C. In turn, `O=S(=O)(N1CCCC1)N1CCN(c2ccnc(CO)n2)CC1` [Example 121, {4-[4-(Pyrrolidine-1-sulfonyl)-piperazin-1-yl]-pyrimidin-2-yl}-methanol] returned a melting point of 128 to 131 °C.

`O=S(=O)(N1CCCCC1)N1CCN(c2ccnc(CO)n2)CC1` [Example 123] had a melting point of 141 to 142 °C. Take `C[C@@H]1CN(C(=O)/C=C/c2cc3ccccc3o2)C[C@H](C)N1c1ccnc([C@@H](C)O)n1` [Example 130, (E)-3-Benzofuran-2-yl-1-{4-[2-(1R-hydroxy-ethyl)-pyrimidin-4-yl]-2R,6S-dimethyl-piperazin-1-yl}-propenone]: the melting point fell in the range of 80 to 82 °C. The compound `C[C@@H]1CN(c2ccnc([C@@H](C)O)n2)C[C@H](C)N1C(=O)C1CCCCC1` [Example 131, Cyclohexyl-{4-[2-(1R-hydroxy-ethyl)-pyrimidin-4-yl]-2R,6S-dimethyl-piperazin-1-yl}-methanone] yielded a melting point of 174 to 175 °C. As to `C[C@@H]1CN(c2ccnc([C@@H](C)O)n2)C[C@H](C)N1C(=O)c1cc2cnccc2o1` [Example 132, Furo[3,2-c]pyridin-2-yl-{4-[2-(1R-hydroxy-ethyl)-pyrimidin-4-yl]-2R,6S-dimethyl-piperazin-1-yl}-methanone], the melting point was 142 to 143 °C. `C[C@@H]1CN(c2ccnc([C@@H](C)O)n2)C[C@H](C)N1C(=O)CSc1ncccn1` [Example 160, 1-{4-[2-(1R-Hydroxy-ethyl)-pyrimidin-4-yl]-2R,6S-dimethyl-piperazin-1-yl}-2-(pyrimidin-2-ylsulfanyl)-ethanone]: the melting point lay in the range of 60 to 70 °C.

The compound `C[C@@H](O)c1nccc(N2CCC(O)(c3ccccc3)CC2)n1` [Example 175, (R)-4-Phenyl-1-[2-(1-hydroxy-ethyl)-pyrimidin-4-yl]-piperidin-4-ol] showed a melting point of 114 °C.

As to `C[C@@H](O)c1nccc(N2CCC(=Cc3cccc(Cl)c3)CC2)n1` [Example 176, (R)-1-{4-[4-(3-Chlorobenzylidene)-piperidin-1-yl]-pyrimidin-2-yl}-ethanol], the melting point lay within 45 to 55 °C. Compound `C[C@@H](O)c1nccc(N2CCC(=CC(=O)c3ccccc3)CC2)n1` [Example 179] came in with a melting point of 44 to 59 °C.

`C[C@@H](O)c1nccc(N2CCC(=C(c3ccccc3)c3ccccc3)CC2)n1` [Example 180]: the melting point fell in the range of 108 to 109 °C. On to `C[C@@H](O)c1nccc(N2CCC(=C(c3ccccc3)c3ccccn3)CC2)n1` [Example 181], for which the melting point lay in the range of 98 to 101 °C. With `C[C@@H](O)c1nccc(N2CCN(Cc3ccccn3)CC2)n1` [Example 182, (R)-1-[4-(4-Pyridin-2-ylmethyl-piperazin-1-yl)-pyrimidin-2-yl]-ethanol] the figure was 68 to 70 °C; with `C[C@@H]1CN(c2nccc(-n3cncn3)n2)C[C@H](C)N1c1ccnc([C@@H](C)O)n1` [Example 196, 1R-{4-[2R,6S-Dimethyl-4-(4-[1,2,4]triazol-1-yl-pyrimidin-2-yl)-piperazin-1-yl]-pyrimidin-2-yl}-ethanol], 181 to 182 °C.
